In patent publication US11884675B2, “Heterocyclic compounds as triggering receptor expressed on myeloid cells 2 agonists and methods of use” (AMGEN INC., priority 2020, dated 2024):

molecular target: hTREM2 (Homo sapiens, UniProt Q9NZC2); test: TREM2 activity by cellular Syk phosphorylation (AlphaScreen/AlphaLISA) in TREM2/DAP12-HEK cells, used for Examples 1-305; type: cell-based; set-up: expressed in transfected cells; details: HEK293 Cells
Summary of the method: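 Phospho-Syk (Tyr525/526) over total Syk quantified by AlphaScreen in lysates of cloned TREM2/DAP12-overexpressing HEK293 cells after 45 min compound treatment at room temperature, 1% final DMSO. Values expressed relative to 100 nM anti-TREM2 antibody (positive) and isotype IgG (negative) controls; curves fitted with 4-parameter logistic model.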

hTREM2, sequence (Q9NZC2 19-230): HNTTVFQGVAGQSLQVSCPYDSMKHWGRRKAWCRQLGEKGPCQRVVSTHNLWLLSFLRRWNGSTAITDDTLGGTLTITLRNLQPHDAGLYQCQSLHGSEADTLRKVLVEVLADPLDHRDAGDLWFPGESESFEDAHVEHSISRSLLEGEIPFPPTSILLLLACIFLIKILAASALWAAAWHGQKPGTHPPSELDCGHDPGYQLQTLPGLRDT
hTREM2, sequence (O43914 22-113 partner): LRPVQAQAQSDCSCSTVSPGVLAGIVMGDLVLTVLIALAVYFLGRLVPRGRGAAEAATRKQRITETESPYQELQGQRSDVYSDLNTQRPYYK

SMILES | EC50 [nM] | hTREM2 Emax
Cc1ccc2c(-c3ccc(F)cc3F)nc(N3CCO[C@@H](c4cnn(C5CC5)c4)C3)nc2n1 [Example 92, 2-((2S)-2-(1-cyclopropyl-1H-pyrazol-4-yl)-4-morpholinyl)-4-(2,4-difluorophenyl)-7-methylpyrido[2,3-d]pyrimidine] | ≤ 50 | +++ (Emax>150 and ≤250)
Cc1nc2nc(N3CCO[C@@H](c4cnn(C)c4)C3)nc(N3C[C@@H]4[C@H](C3)C4(F)F)c2nc1C [Example 27, 4-((1R,5S)-6,6-difluoro-3-azabicyclo[3.1.0]hexan-3-yl)-6,7-dimethyl-2-((2S)-2-(1-methyl-1H-pyrazol-4-yl)-4-morpholinyl)pteridine] | 500 to 3000 | ++ (Emax>100 and ≤150)
COc1cc([C@H]2CN(c3cc4nc(C)ccc4c(-c4ccc(Cl)cc4F)n3)CCO2)ccn1 [Example 149, 5-(4-chloro-2-fluorophenyl)-7-((2S)-2-(2-methoxy-4-pyridinyl)-4-morpholinyl)-2-methyl-1,6-naphthyridine] | 50 to 500 | ++++ (Emax>250)
Cc1ccc(-c2nc([C@@H]3CCO[C@@H](c4cnn(C)c4)C3)nc3nc(C)c(C)cc23)c(F)c1 [Example 268, 4-(2-fluoro-4-methylphenyl)-6,7-dimethyl-2-((2R,4R)-2-(1-methyl-1H-pyrazol-4-yl)tetrahydro-2H-pyran-4-yl)pyrido[2,3-d]pyrimidine] | 500 to 3000 | ++++ (Emax>250)
Cc1ncc([C@H]2CN(c3nc(-c4ccc(C(F)(F)F)nc4)c4nc(C)c(C)nc4n3)CCO2)cn1 [Example 294, (S)-4-(6,7-dimethyl-4-(6-(trifluoromethyl)pyridin-3-yl)pteridin-2-yl)-2-(2-methylpyrimidin-5-yl)morpholine] | 500 to 3000 | +++ (Emax>150 and ≤250)
Cc1cc([C@H]2C[C@@H](c3nc4nc(C)c(C)nc4c([C@H]4C[C@H](C(F)(F)F)C4)n3)CCO2)ccn1 (single isomer, unassigned) [Example 215] | ≤ 50 | +++ (Emax>150 and ≤250)
Cc1nc2nc([C@@H]3CCO[C@H](c4cnn(C)c4)C3)nc(-c3ccc(Cl)cc3F)c2nc1C (single isomer, unassigned) [Example 177] | 500 to 3000 | +++ (Emax>150 and ≤250)
Cc1nc2nc(N3CCO[C@@H](c4cnn(C)c4)C3)nc(C3CCC(F)(F)CC3)c2nc1C [Example 133, 4-(4,4-difluorocyclohexyl)-6,7-dimethyl-2-((2S)-2-(1-methyl-1H-pyrazol-4-yl)-4-morpholinyl)pteridine] | ≤ 50 | +++ (Emax>150 and ≤250)
Cc1ccc2c(C34CC(C(F)(F)F)(C3)C4)nc(N3CCO[C@@H](c4cnn(C5CC5)c4)C3)nc2n1 [Example 101, 2-((2S)-2-(1-cyclopropyl-1H-pyrazol-4-yl)-4-morpholinyl)-7-methyl-4-(3-(trifluoromethyl)bicyclo[1.1.1]pentan-1-yl)pyrido[2,3-d]pyrimidine] | 3000 to 100000 | –
Cc1nc2nc(N3CCO[C@@H](c4cnn(C)c4)C3)nc([C@@H]3CCC(C)(C)C3)c2nc1C [Example 303, (S)-4-(4-((R)-3,3-dimethylcyclopentyl)-6,7-dimethylpteridin-2-yl)-2-(1-methyl-1H-pyrazol-4-yl)morpholine] | 50 to 500 | ++ (Emax>100 and ≤150)
Cc1nc2nc(N3CCO[C@@H](c4cnn(C)c4)C3)nc(N3CCC(F)(F)C3)c2nc1C [Example 71, 4-(3,3-difluoro-1-pyrrolidinyl)-6,7-dimethyl-2-((2S)-2-(1-methyl-1H-pyrazol-4-yl)-4-morpholinyl)pteridine] | 3000 to 100000 | ++ (Emax>100 and ≤150)
Cc1cc([C@@H]2CN(c3cc4nc(C)ccc4c(-c4ccc(Cl)cc4F)n3)CCO2)ccn1 [Example 240, (R)-4-(5-(4-chloro-2-fluorophenyl)-2-methyl-1,6-naphthyridin-7-yl)-2-(2-methylpyridin-4-yl)morpholine] | 3000 to 100000 | ++++ (Emax>250)
Cc1cnc2c(C34CC(C(F)(F)F)(C3)C4)nc(N3CCO[C@@H](c4cnn(C5CC5)c4)C3)nc2n1 [Example 231, (S)-2-(1-cyclopropyl-1H-pyrazol-4-yl)-4-(7-methyl-4-(3-(trifluoromethyl)bicyclo[1.1.1]pentan-1-yl)pteridin-2-yl)morpholine] | ≤ 50 | +++ (Emax>150 and ≤250)
Cc1cc2c(-c3ccc(Cl)cc3F)nc([C@H]3CCO[C@@H](c4cnn(C)c4)C3)nc2nc1C (single isomer, unassigned) [Example 224] | ≤ 50 | +++ (Emax>150 and ≤250)
Cn1cc([C@H]2CN(c3cc4ccccc4c(-c4ccc(Cl)cc4F)n3)CCO2)cn1 [Example 235, (S)-4-(1-(4-chloro-2-fluorophenyl)isoquinolin-3-yl)-2-(1-methyl-1H-pyrazol-4-yl)morpholine] | 3000 to 100000 | + (Emax>45 and ≤100)
Cc1cc([C@H]2CN(c3cc4nc(C)ccc4c(-c4ccc(Cl)cc4F)n3)CCO2)ccn1 [Example 151, 5-(4-chloro-2-fluorophenyl)-2-methyl-7-((2S)-2-(2-methyl-4-pyridinyl)-4-morpholinyl)-1,6-naphthyridine] | 50 to 500 | ++++ (Emax>250)
Cc1nc2nc(N3CCO[C@@H](c4cnn(C)c4)C3)nc(C34CC(C(F)(F)F)(C3)C4)c2nc1C [Example 63, 6,7-dimethyl-2-((2S)-2-(1-methyl-1H-pyrazol-4-yl)-4-morpholinyl)-4-(3-(trifluoromethyl)bicyclo[1.1.1]pentan-1-yl)pteridine] | ≤ 50 | +++ (Emax>150 and ≤250)
Cc1cnc2c(-c3ccc(Cl)cc3F)nc(N3CCOC(C4CCOC4)C3)nc2n1 (centres unmarked) [Example 5, 4-(4-chloro-2-fluorophenyl)-7-methyl-2-(2-(tetrahydro-3-furanyl)-4-morpholinyl)pteridine] | 500 to 3000 | +++ (Emax>150 and ≤250)
Cc1nc2nc(N3CCOC(C4CCOC4)C3)nc(-c3ccc(Cl)cc3F)c2nc1C (centres unmarked) [Example 26, 4-(4-chloro-2-fluorophenyl)-6,7-dimethyl-2-(2-(tetrahydro-3-furanyl)-4-morpholinyl)pteridine] | ≤ 50 | ++++ (Emax>250)
Cc1cc2c(-c3ccc(Cl)cc3F)nc([C@H]3C[C@@H](C)O[C@@H](c4cnn(C)c4)C3)nc2nc1C (single isomer, unassigned) [Example 229] | ≤ 50 | +++ (Emax>150 and ≤250)
Cc1nc2nc(N3CCO[C@@H](c4cnn(C)c4)C3)nc(C3=CCC(F)(F)CC3)c2nc1C [Example 125, 4-(4,4-difluoro-1-cyclohexen-1-yl)-6,7-dimethyl-2-((2S)-2-(1-methyl-1H-pyrazol-4-yl)-4-morpholinyl)pteridine] | 50 to 500 | +++ (Emax>150 and ≤250)
Cc1ccc2c(C3CCC(F)(F)CC3)nc(N3CCO[C@@H](c4cnn(C5CC5)c4)C3)nc2n1 [Example 143, 2-((2S)-2-(1-cyclopropyl-1H-pyrazol-4-yl)-4-morpholinyl)-4-(4,4-difluorocyclohexyl)-7-methylpyrido [2,3-d]pyrimidine] | 50 to 500 | +++ (Emax>150 and ≤250)
Cc1cc([C@H]2C[C@H](c3nc(-c4ccc(Cl)cc4F)c4nc(C)c(C)nc4n3)CCO2)ccn1 [Example 273, 4-(4-chloro-2-fluorophenyl)-6,7-dimethyl-2-((2R,4R)-2-(2-methylpyridin-4-yl)tetrahydro-2H-pyran-4-yl)pteridine] | ≤ 50 | +++ (Emax>150 and ≤250)
Cc1nc2nc(N3CCO[C@@H](c4cnn(C5CC5)c4)C3)nc(C3CC4(C3)CC(F)(F)C4)c2nc1C [Example 49, 2-((2S)-2-(1-cyclopropyl-1H-pyrazol-4-yl)-4-morpholinyl)-4-(6,6-difluorospiro[3.3]heptan-2-yl)-6,7-dimethylpteridine] | ≤ 50 | ++ (Emax>100 and ≤150)
Cc1nc2nc(N3CCO[C@@H](c4cnn(C)c4)C3)nc([C@H]3CC[C@H](C(F)(F)F)CC3)c2nc1C [Example 132, 6,7-dimethyl-2-((2S)-2-(1-methyl-1H-pyrazol-4-yl)-4-morpholinyl)-4-(trans-4-(trifluoromethyl)cyclohexyl)pteridine] | ≤ 50 | ++ (Emax>100 and ≤150)
Cc1nc2nc(N3CCO[C@@H](c4cnn(C)c4)C3)nc(C3CCCCC3)c2nc1C [Example 134, 4-cyclohexyl-6,7-dimethyl-2-((2S)-2-(1-methyl-1H-pyrazol-4-yl)-4-morpholinyl)pteridine] | 50 to 500 | + (Emax>45 and ≤100)
Cc1nc2nc([C@H]3CCO[C@@H](c4cnn(C)c4)C3)cc(-c3ccc(F)cc3F)c2nc1C (single isomer, unassigned) [Example 188] | ≤ 50 | +++ (Emax>150 and ≤250)
Cc1cc2c(OC[C@H]3CC3(C)C)nc(N3CCO[C@@H](c4cnn(C)c4)C3)nc2nc1C [Example 111, 4-(((1S)-2,2-dimethylcyclopropyl)methoxy)-6,7-dimethyl-2-((2S)-2-(1-methyl-1H-pyrazol-4-yl)-4-morpholinyl)pyrido[2,3-d]pyrimidine] | 500 to 3000 | + (Emax>45 and ≤100)
CN1Cc2c(cc(N3CCO[C@@H](c4cnn(C)c4)C3)nc2-c2ccc(Cl)cc2F)C1=O [Example 119, 4-(4-chloro-2-fluorophenyl)-2-methyl-6-((2S)-2-(1-methyl-1H-pyrazol-4-yl)-4-morpholinyl)-2,3-dihydro-1H-pyrrolo[3,4-c]pyridin-1-one] | 50 to 500 | ++ (Emax>100 and ≤150)
Cc1cc([C@H]2C[C@H](c3nc(-c4ccc(F)cc4F)c4ccc(C)nc4n3)CCO2)ccn1 [Example 278, 4-(2,4-difluorophenyl)-7-methyl-2-((2R,4R)-2-(2-methylpyridin-4-yl)tetrahydro-2H-pyran-4-yl)pyrido [2,3-d]pyrimidine] | 500 to 3000 | +++ (Emax>150 and ≤250)
